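Protocol summary: plate cells (96-well), add compound at 5 concentrations, incubate 48 h, interpolate endpoints linearly. GI50: concentration for 50% inhibition of growth. TGI marks complete inhibition of growth.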
Key:
Test in all cases: inhibition of tumour cell growth, NCI panel, 48 h; in the data active = GI50 below about 0.43 µM; inactive = the rest
[1] = system: HCT-15 colon
[2] = system: KM12 colon
[3] = system: MALME-3M melanoma
[4] = system: NCI-H23 lung
[5] = system: NCI-H522 lung
[6] = system: OVCAR-3 ovarian
[7] = system: OVCAR-5 ovarian
[8] = system: SK-MEL-2 melanoma
[9] = system: SK-OV-3 ovarian
[10] = system: SW-620 colon

COC(OC)[C@@H]1OC[C@@H](O)[C@@H]1n1cnc2c(N)ncnc21
> 100 µM: TGI [1] | TGI [2] | TGI [3] | TGI [4] | TGI [5] | TGI [6] | TGI [7] | TGI [8] | TGI [9] | TGI [10]

CN(C)c1cc[n+](-c2nc(/N=C(\[O-])C(F)(F)F)nc3c2ncn3C2CC(O)C(CO)O2)cc1 (stereo not given)
> 100 µM: TGI [1] | TGI [2] | TGI [3] | TGI [4] | TGI [5] | TGI [6] | TGI [7] | TGI [8] | TGI [9] | TGI [10]

S=C(Nc1ccc2cn[nH]c2c1)Nc1ccc2cn[nH]c2c1
> 100 µM: TGI [1] | TGI [2] | TGI [3] | TGI [4] | TGI [5] | TGI [6] | TGI [7] | TGI [8] | TGI [9] | TGI [10]

CCOc1cc(NC(C)=O)ccc1C(=O)NN1C(=O)CSC1c1ccccc1 (stereo not given)
> 100 µM: TGI [1] | TGI [2] | TGI [3] | TGI [4] | TGI [5] | TGI [6] | TGI [7] | TGI [8] | TGI [9] | TGI [10]

O=C1Nc2ccccc2/C1=c1\[nH]c(=O)/c(=C\c2ccc(OCc3ccccc3)cn2)[nH]c1=O
> 100 µM: TGI [1] | TGI [2] | TGI [3] | TGI [4] | TGI [5] | TGI [6] | TGI [7] | TGI [8] | TGI [9] | TGI [10]

N#C[C@H](c1nc2ccccc2s1)c1nc2ccccc2nc1Cl
22.9 µM: TGI [1]
38.9 µM: TGI [6]
39 µM: TGI [7]
32.3 µM: TGI [4]
73 µM: TGI [9]
> 100 µM: TGI [2] | TGI [3] | TGI [5] | TGI [8] | TGI [10]

C[Si](C)(C)C1=C([Si](C)(C)C)C(Cl)(Cl)C1=O
49.3 µM: TGI [9]
20 µM: TGI [7]
34.6 µM: TGI [8]
18.4 µM: TGI [4]
8.15 µM: TGI [6]
4.05 µM: TGI [1]
4.22 µM: TGI [3]
18.9 µM: TGI [2]
13.2 µM: TGI [10]
3.6 µM: TGI [5]

c1cnc(N2CCN(Cc3c[nH]c4ccccc34)CC2)nc1
76.6 µM: TGI [2]
31.4 µM: TGI [8]
> 100 µM: TGI [1] | TGI [3] | TGI [4] | TGI [5] | TGI [6] | TGI [7] | TGI [9] | TGI [10]

CSc1c(C(=O)Nc2ccc(Cl)cc2)c(N)n(N)c(=O)c1C#N
> 100 µM: TGI [1] | TGI [2] | TGI [3] | TGI [4] | TGI [5] | TGI [6] | TGI [7] | TGI [8] | TGI [9] | TGI [10]

CC1(C)CC(=O)C2=C(C1)OC1=C(CC(C)(C)CC1=O)C2c1ccccc1[N+](=O)[O-] (stereo not given)
> 100 µM: TGI [1] | TGI [2] | TGI [3] | TGI [4] | TGI [5] | TGI [6] | TGI [7] | TGI [8] | TGI [9] | TGI [10]

O=C1C(CN2CCOCC2)CCCC1CN1CCOCC1 (stereo not given)
16.9 µM: TGI [4]
36.6 µM: TGI [7]
16.3 µM: TGI [8]
17.8 µM: TGI [2]
0.156 µM: TGI [5]
3.2 µM: TGI [1]
8.21 µM: TGI [6]
51.8 µM: TGI [9]
0.911 µM: TGI [10]
2.04 µM: TGI [3]

COC(=O)c1ccc(Nc2nc3nc[nH]c3c(=O)[nH]2)cc1
> 100 µM: TGI [1] | TGI [2] | TGI [3] | TGI [4] | TGI [5] | TGI [6] | TGI [7] | TGI [8] | TGI [9] | TGI [10]

O=C1c2cn[nH]c2C(c2ccccc2)N1c1ccccc1 (stereo not given)
> 10 µM: TGI [1] | TGI [2] | TGI [3] | TGI [4] | TGI [5] | TGI [6] | TGI [7] | TGI [8] | TGI [9] | TGI [10]

CCOC(=O)C1=C(C)N(c2ccc(OC)cc2)C2(O)C=CC(=O)C3=C(O)c4ccccc4C(=O)C312 (stereo not given)
11.7 µM: TGI [6]
33.4 µM: TGI [7]
31 µM: TGI [8]
29.2 µM: TGI [2]
11.9 µM: TGI [5]
37.4 µM: TGI [4]
20.9 µM: TGI [1]
29.8 µM: TGI [10]
1.17 µM: TGI [3]
31.1 µM: TGI [9]

COc1cc(C2c3cc4c(cc3OC(NCCO)C2C)OCO4)cc(OC)c1OC (stereo not given)
0.603 µM: TGI [6]
> 34.8 µM: TGI [1]
1.62 µM: TGI [5]
> 70.2 µM: TGI [2]
> 100 µM: TGI [3] | TGI [4] | TGI [7] | TGI [8] | TGI [9] | TGI [10]

CCn1c(SCC(=O)NNC(=S)NC)nc2ccccc2c1=O
> 100 µM: TGI [1] | TGI [2] | TGI [3] | TGI [4] | TGI [5] | TGI [6] | TGI [7] | TGI [8] | TGI [9] | TGI [10]

COc1ccc2c(OCc3nnc4ccc(-c5ccccc5)nn34)ccnc2c1
inactive: GI50 [1] > 100 µM | GI50 [2] > 100 µM | GI50 [3] > 100 µM | GI50 [4] > 100 µM | GI50 [5] 20.1 µM | GI50 [6] > 100 µM | GI50 [7] > 100 µM | GI50 [8] > 91.1 µM | GI50 [9] > 100 µM | GI50 [10] > 100 µM
> 43.8 µM: TGI [5]
> 100 µM: TGI [1] | TGI [2] | TGI [3] | TGI [4] | TGI [6] | TGI [7] | TGI [8] | TGI [9] | TGI [10]

CC1CC(=O)N(N(C)C)C(C#N)(C#N)C1(C#N)C#N (stereo not given)
31.6 µM: TGI [1]
51.8 µM: TGI [7]
> 64.9 µM: TGI [2] | TGI [9]
21.1 µM: TGI [10]
59.3 µM: TGI [8]
7.73 µM: TGI [5]
44.6 µM: TGI [6]
43.8 µM: TGI [4]
29.3 µM: TGI [3]

Cc1ccc2c(c1)C(=O)C(C1OC(=O)c3ccccc31)C2 (stereo not given)
> 100 µM: TGI [1] | TGI [2] | TGI [3] | TGI [4] | TGI [5] | TGI [6] | TGI [7] | TGI [8] | TGI [9] | TGI [10]

C[Si](C)(c1ccccc1)[C@H]1CCCC=C1CCNC1c2ccccc2CCc2ccccc21
> 100 µM: TGI [1] | TGI [2] | TGI [3] | TGI [4] | TGI [5] | TGI [6] | TGI [7] | TGI [8] | TGI [9] | TGI [10]

Source: PubChem BioAssay (NCI)
